Source: patent US20250129121A1, “POLYPEPTIDE, PRODUCT INCLUDING POLYPEPTIDE FOR INHIBITING FUSOBACTERIUM NUCLEATUM, OR DRUG FOR PREVENTING COLORECTAL CANCER” (priority 2022, published 2025)
Converted amounts (≈) assume the structure as drawn. Where a SMILES comes first, the peptide text is derived from it.

Experiments:
[1] = tested on: Bifidobacterium longum 6194; type: cell-based; settings: 20 h
Method: (§1) A. Each polypeptide was prepared into a specified stock solution for later use. Minimum inhibitory concentrations (MICs) of the polypeptides P1 to P12 were determined by a broth microdilution method. With 0.01% acetic acid (including 0.2% of bovine serum albumin (BSA)) as a diluent, a series of gradient antimicrobial peptide solutions were prepared by a two-fold dilution method.
(§2) B. 100 μL of each polypeptide stock solution was taken and added to a 96-well cell culture plate, and then each strain solution to be tested (about 10^5/mL) was added in an equal volume to each well. A positive control (including a strain solution, but not including a polypeptide) and a negative control (including neither a strain solution nor a polypeptide). Strains to be tested include Escherichia coli Nissile 1917, Vibrio cholerae H1, Pseudomonas aeruginosa PAO1, F. nucleatum 25586, F. nucleatum 10953, Bifidobacterium uniformis 6597, Lactobacillus acidophilus 6075, Bifidobacterium longum 6194Lactobacillus rhamnosus 6141, and Streptococcus agalactiae H94.
(§3) C. The cell culture plate was incubated at a constant temperature of 37° C. for 20 h, and MIC was recorded when the turbidity was not observed by naked eyes at a bottom of a well. The strains all were purchased from the market.

[2] = tested on: Bifidobacterium uniformis 6597; type: cell-based; settings: 20 h
Method: as §1, §2, §3

[3] = tested on: Escherichia coli Nissile 1917; type: cell-based; settings: Nissile 1917, 20 h
Method: as §1, §2, §3

[4] = tested on: Lactobacillus acidophilus 6075; type: cell-based; settings: 20 h
Method: as §1, §2, §3

[5] = tested on: Lactobacillus rhamnosus 6141; type: cell-based; settings: 20 h
Method: as §1, §2, §3

[6] = tested on: Pseudomonas aeruginosa PAO1; type: cell-based; settings: PAO1, 20 h
Method: as §1, §2, §3

[7] = tested on: Streptococcus agalactiae H94; type: cell-based; settings: H94, 20 h
Method: as §1, §2, §3

F. nucleatum 10953 = type: cell-based, Fusobacterium nucleatum; settings: 10953, 20 h
Method: as §1, §2, §3

F. nucleatum 25586 = type: cell-based, Fusobacterium nucleatum; settings: 25586, 20 h
Method: as §1, §2, §3

other strains = assay: Antimicrobial activity against strains other than F. nucleatum (bactericidal specificity); type: cell-based; settings: test strains other than F. nucleatum
Method: as §1, §2, §3

[8] = tested on: F. nucleatum-induced colorectal cancer; assay: F. nucleatum-enhanced colorectal cancer animal model; type: in vivo, C57BL APC^min mouse; settings: 20 mg/kg per day intragastrically for 7 d, compared with Fn+H2O group
Description: A. To verify the antibacterial effects of the F. nucleatum-specific antimicrobial peptides in vivo for F. nucleatum and especially the preventive effects of the F. nucleatum-specific antimicrobial peptides for F. nucleatum-induced diseases, an F. nucleatum-enhanced colorectal cancer animal model (i.e. the C57BL APC^min mouse orally administered with F. nucleatum) was adopted in this example. As shown in FIG. 20: C57BL APC^min mice were selected and intragastrically administered with F. nucleatum 25586 three times a week as an F. nucleatum intragastric administration group. Mice in a control group were intragastrically administered with an equal amount of PBS every week (PBS intragastric administration group). On the second day of intragastric administration in the first week, mice each were treated with 2.5% dextran sulfate sodium (DSS) consecutively for 3 d to improve the colonization of F. nucleatum. B. Mice were intragastrically administered with the antimicrobial peptide P8 or P11 for treatment in the sixth week, and mice in the control group were intragastrically administered with pure water. Each mouse was intragastrically administered at 20 mg/kg per day consecutively for 7 d. Then, mice were euthanized, and the tumor number and size were recorded.

SMILES | MIC Bifidobacterium longum 6194 [1] [µM] | MIC Bifidobacteriu muniformis 6597 [2] [µM] | MIC Escherichia coli nissile1917 [3] [µM] | MIC Lactobacillus acidophilus 6075 [4] [µM] | MIC Lactobacterium rhamnosus 6141 [5] [µM] | MIC Pseudomonas aeruginosa PAO1 [6] [µM] | MIC Streptococcus agalactiae H94 [7] [µM] | MIC Fusobacterium nucleatum 10953 (F. nucleatum 10953) [µM] | MIC Fusobacterium nucleatum 25586 (F. nucleatum 25586) [µM] | antimicrobial activity against other strains (other strains) | tumor diameter [8] | tumor number [8]
N=C(N)NCCC[C@H](NC(=O)CNC(=O)[C@@H]1CCCN1C(=O)[C@H](CCCNC(=N)N)NC(=O)[C@H](Cc1c[nH]c2ccccc12)NC(=O)[C@H](Cc1c[nH]cn1)NC(=O)[C@H](Cc1c[nH]c2ccccc12)NC(=O)[C@H](CCCNC(=N)N)NC(=O)[C@H](Cc1c[nH]c2ccccc12)NC(=O)[C@H](Cc1c[nH]cn1)NC(=O)[C@@H](N)Cc1c[nH]c2ccccc12)C(=O)N[C@@H](Cc1c[nH]c2ccccc12)C(=O)N[C@@H](Cc1c[nH]cn1)C(=O)N[C@@H](Cc1c[nH]c2ccccc12)C(=O)N[C@@H](CCCNC(=N)N)C(=O)N[C@@H](Cc1c[nH]c2ccccc12)C(=O)N[C@@H](Cc1c[nH]cn1)C(=O)N[C@@H](Cc1c[nH]c2ccccc12)C(=O)O [P8, WHWRWHWRPGRWHWRWHW] (H-WHWRWHWRPGRWHWRWHW-OH; N-terminus assumed) | >64 | >64 | >64 | 32 (≈ 90.7 µg/mL) | >64 | >64 | >64 | 4 (≈ 11.3 µg/mL) | 8 (≈ 22.7 µg/mL) | weak antimicrobial activity | relatively small | relatively small
N=C(N)NCCC[C@H](NC(=O)CNC(=O)[C@@H]1CCCN1C(=O)[C@H](CCCNC(=N)N)NC(=O)[C@H](Cc1c[nH]c2ccccc12)NC(=O)[C@H](CCCCN)NC(=O)[C@H](Cc1c[nH]c2ccccc12)NC(=O)[C@H](CCCNC(=N)N)NC(=O)[C@H](Cc1c[nH]c2ccccc12)NC(=O)[C@H](CCCCN)NC(=O)[C@@H](N)Cc1c[nH]c2ccccc12)C(=O)N[C@@H](Cc1c[nH]c2ccccc12)C(=O)N[C@@H](CCCCN)C(=O)N[C@@H](Cc1c[nH]c2ccccc12)C(=O)N[C@@H](CCCNC(=N)N)C(=O)N[C@@H](Cc1c[nH]c2ccccc12)C(=O)N[C@@H](CCCCN)C(=O)N[C@@H](Cc1c[nH]c2ccccc12)C(=O)O [P11, WKWRWKWRPGRWKWRWKW] (H-WKWRWKWRPGRWKWRWKW-OH; N-terminus assumed) | 16 (≈ 44.8 µg/mL) | 8 (≈ 22.4 µg/mL) | 64 (≈ 179 µg/mL) | 32 (≈ 89.6 µg/mL) | >64 | 32 (≈ 89.6 µg/mL) | 64 (≈ 179 µg/mL) | 16 (≈ 44.8 µg/mL) | 4 (≈ 11.2 µg/mL) | weak antimicrobial activity | relatively small | relatively small
N=C(N)NCCC[C@H](NC(=O)CNC(=O)[C@@H]1CCCN1C(=O)[C@H](CCCNC(=N)N)NC(=O)[C@H](Cc1c[nH]c2ccccc12)NC(=O)[C@H](CCC(=O)O)NC(=O)[C@H](Cc1c[nH]c2ccccc12)NC(=O)[C@H](Cc1c[nH]c2ccccc12)NC(=O)[C@H](CCC(=O)O)NC(=O)[C@H](Cc1c[nH]c2ccccc12)NC(=O)[C@H](CCCNC(=N)N)NC(=O)CNC(=O)[C@@H]1CCCN1C(=O)[C@H](CCCNC(=N)N)NC(=O)[C@H](Cc1c[nH]c2ccccc12)NC(=O)[C@H](CCC(=O)O)NC(=O)[C@@H](N)Cc1c[nH]c2ccccc12)C(=O)N[C@@H](Cc1c[nH]c2ccccc12)C(=O)N[C@@H](CCC(=O)O)C(=O)N[C@@H](Cc1c[nH]c2ccccc12)C(=O)O [P3] (H-WEWRPGRWEWWEWRPGRWEW-OH; N-terminus assumed) | >64 | >64 | >64 | >64 | >64 | >64 | >64 | >64 | >64 |  |  | 
N=C(N)NCCC[C@H](NC(=O)CNC(=O)[C@@H]1CCCN1C(=O)[C@H](CCCNC(=N)N)NC(=O)[C@H](Cc1c[nH]c2ccccc12)NC(=O)[C@H](CCC(=O)O)NC(=O)[C@H](Cc1c[nH]c2ccccc12)NC(=O)[C@H](CCCNC(=N)N)NC(=O)[C@H](Cc1c[nH]c2ccccc12)NC(=O)[C@H](CCC(=O)O)NC(=O)[C@@H](N)Cc1c[nH]c2ccccc12)C(=O)N[C@@H](Cc1c[nH]c2ccccc12)C(=O)N[C@@H](CCC(=O)O)C(=O)N[C@@H](Cc1c[nH]c2ccccc12)C(=O)N[C@@H](CCCNC(=N)N)C(=O)N[C@@H](Cc1c[nH]c2ccccc12)C(=O)N[C@@H](CCC(=O)O)C(=O)N[C@@H](Cc1c[nH]c2ccccc12)C(=O)O [P2, WEWRWEWRPGRWEWRWEW] (H-WEWRWEWRPGRWEWRWEW-OH; N-terminus assumed) | >64 | >64 | >64 | >64 | >64 | >64 | >64 | >64 | >64 |  |  | 
